# According to ChEMBL document CHEMBL1155915, “Anticonvulsant activity of some xanthone derivatives” (Bioorg Med Chem, 2008):
# Active and inactive are the calls of the source. The rule behind the calls is not given here.
# Columns and labels:
# Mus musculus [1] = experiment: Neurotoxicity in mouse at 30 mg/kg, ip after 0.5 hrs by rotarod test; assay type: toxicity, organism-based; set-up: dose 30 mg/kg, route intraperitoneal; conditions: in vivo
# Mus musculus [2] = experiment: Neurotoxicity in mouse at 30 mg/kg, ip after 4 hrs by rotarod test; assay type: toxicity, organism-based; set-up: dose 30 mg/kg, route intraperitoneal; conditions: in vivo
# Mus musculus [3] = experiment: Neurotoxicity in mouse at 100 mg/kg, ip after 4 hrs by rotarod test; assay type: toxicity, organism-based; set-up: dose 100 mg/kg, route intraperitoneal; conditions: in vivo
# Rattus norvegicus [4] = experiment: Anticonvulsant activity against maximal electroshock-induced seizures in rat at 30 mg/kg, po after 0.5 hrs; assay type: functional, organism-based; set-up: dose 30 mg/kg
# Rattus norvegicus [5] = experiment: Anticonvulsant activity against maximal electroshock-induced seizures in rat at 30 mg/kg, po after 1 hr; assay type: functional, organism-based; set-up: dose 30 mg/kg
# Rattus norvegicus [6] = experiment: Anticonvulsant activity against maximal electroshock-induced seizures in rat at 30 mg/kg, po after 2 hrs; assay type: functional, organism-based; set-up: dose 30 mg/kg
# Rattus norvegicus [7] = experiment: Neurotoxicity in rat at 30 mg/kg, po after 0.25 hrs by rotarod test; assay type: toxicity, organism-based; set-up: dose 30 mg/kg, route oral; conditions: in vivo
# Rattus norvegicus [8] = experiment: Neurotoxicity in rat at 30 mg/kg, po after 0.5 hrs by rotarod test; assay type: toxicity, organism-based; set-up: dose 30 mg/kg, route oral; conditions: in vivo
# Rattus norvegicus [9] = experiment: Neurotoxicity in rat at 30 mg/kg, po after 1 hr by rotarod test; assay type: toxicity, organism-based; set-up: dose 30 mg/kg, route oral; conditions: in vivo
# Rattus norvegicus [10] = experiment: Neurotoxicity in rat at 30 mg/kg, po after 2 hrs by rotarod test; assay type: toxicity, organism-based; set-up: dose 30 mg/kg, route oral; conditions: in vivo
# Rattus norvegicus [11] = experiment: Neurotoxicity in rat at 30 mg/kg, po after 4 hrs by rotarod test; assay type: toxicity, organism-based; set-up: dose 30 mg/kg, route oral; conditions: in vivo
# Mus musculus [12] = experiment: Anticonvulsant activity against maximal electroshock-induced seizures in mouse at 30 mg/kg, ip after 0.5 hrs; assay type: functional, organism-based; set-up: dose 30 mg/kg
# Mus musculus [13] = experiment: Anticonvulsant activity against maximal electroshock-induced seizures in mouse at 30 mg/kg, ip after 4 hrs; assay type: functional, organism-based; set-up: dose 30 mg/kg
# Mus musculus [14] = experiment: Anticonvulsant activity against maximal electroshock-induced seizures in mouse at 100 mg/kg, ip after 0.5 hrs; assay type: functional, organism-based; set-up: dose 100 mg/kg
# Mus musculus [15] = experiment: Anticonvulsant activity against maximal electroshock-induced seizures in mouse at 100 mg/kg, ip after 4 hrs; assay type: functional, organism-based; set-up: dose 100 mg/kg
# Mus musculus [16] = experiment: Anticonvulsant activity against maximal electroshock-induced seizures in mouse at 300 mg/kg, ip after 0.5 hrs; assay type: functional, organism-based; set-up: dose 300 mg/kg
# Mus musculus [17] = experiment: Anticonvulsant activity against maximal electroshock-induced seizures in mouse at 300 mg/kg, ip after 4 hrs; assay type: functional, organism-based; set-up: dose 300 mg/kg
# Mus musculus [18] = experiment: Anticonvulsant activity against scMet-induced seizures in mouse at 100 mg/kg, ip after 4 hrs; assay type: functional, organism-based; set-up: dose 100 mg/kg
# Mus musculus [19] = experiment: Anticonvulsant activity against scMet-induced seizures in mouse at 30 mg/kg, ip after 0.5 hrs; assay type: functional, organism-based; set-up: dose 30 mg/kg
# Mus musculus [20] = experiment: Anticonvulsant activity against scMet-induced seizures in mouse at 30 mg/kg, ip after 4 hrs; assay type: functional, organism-based; set-up: dose 30 mg/kg
# Mus musculus [21] = experiment: Anticonvulsant activity against scMet-induced seizures in mouse at 100 mg/kg, ip after 0.5 hrs; assay type: functional, organism-based; set-up: dose 100 mg/kg
# Mus musculus [22] = experiment: Anticonvulsant activity against scMet-induced seizures in mouse at 300 mg/kg, ip after 0.5 hrs; assay type: functional, organism-based; set-up: dose 300 mg/kg
# Mus musculus [23] = experiment: Anticonvulsant activity against scMet-induced seizures in mouse at 300 mg/kg, ip after 4 hrs; assay type: functional, organism-based; set-up: dose 300 mg/kg
# Mus musculus [24] = experiment: Anticonvulsant activity against maximal electroshock-induced seizures in ip dosed mouse; assay type: functional
# Mus musculus [25] = organism: Mus musculus; experiment: Protective index, ratio of TD50 for mouse by rotarod test to ED50 for mouse by MES test; assay type: functional
# Mus musculus [26] = experiment: Neurotoxicity in mouse at 300 mg/kg, ip after 0.5 hrs by rotarod test; assay type: toxicity, organism-based; set-up: dose 300 mg/kg, route intraperitoneal; conditions: in vivo
# Mus musculus [27] = experiment: Neurotoxicity in mouse at 300 mg/kg, ip after 4 hrs by rotarod test; assay type: toxicity, organism-based; set-up: dose 300 mg/kg, route intraperitoneal; conditions: in vivo
# Rattus norvegicus [28] = experiment: Anticonvulsant activity against maximal electroshock-induced seizures in rat at 30 mg/kg, po after 0.25 hrs; assay type: functional, organism-based; set-up: dose 30 mg/kg
# Mus musculus [29] = experiment: Neurotoxicity in mouse at 100 mg/kg, ip after 0.5 hrs by rotarod test; assay type: toxicity, organism-based; set-up: dose 100 mg/kg, route intraperitoneal; conditions: in vivo
# [30] = Neurotoxicity in ip dosed mouse by rotarod test; assay type: toxicity, organism-based; conditions: in vivo
# Mus musculus [31] = experiment: Anticonvulsant activity against scMet-induced seizures in ip dosed mouse; assay type: functional
# [32] = Displacement of [3H]flunitrazepam from benzodiazepine receptor in rat brain cortex by scintillation counting; assay type: tissue-based
# [33] = Displacement of [3H]nitrendipine from voltage-dependent calcium channel in rat brain cortex by scintillation counting; assay type: tissue-based
# Mus musculus [34] = organism: Mus musculus; experiment: Protective index, ratio of TD50 for mouse by rotarod test to ED50 for mouse by scMET test; assay type: functional
Compound,Neurotoxicity (Mus musculus [1]),Neurotoxicity (Mus musculus [2]),Activity (Rattus norvegicus [4]),Activity (Rattus norvegicus [6]),Neurotoxicity (Rattus norvegicus [7]),Neurotoxicity (Rattus norvegicus [8]),Neurotoxicity (Rattus norvegicus [9]),Neurotoxicity (Rattus norvegicus [10]),Neurotoxicity (Rattus norvegicus [11]),Activity (Mus musculus [12]),Activity (Mus musculus [13]),Activity (Mus musculus [16]),Activity (Mus musculus [17]),Activity (Mus musculus [18]),Activity (Mus musculus [19]),Activity (Mus musculus [20]),Activity (Mus musculus [22]),Activity (Mus musculus [23]),ED50 (Mus musculus [24]) [mg/kg],PI (Mus musculus [25]),also measured
CC(CCl)NCc1ccc2oc3cc(Cl)ccc3c(=O)c2c1.Cl (racemic),Not Active,Not Active,inactive,inactive,Not Active,Not Active,Not Active,Not Active,Not Active,inactive,inactive,inactive,inactive,inactive,inactive,inactive,inactive,inactive,,,Neurotoxicity (Mus musculus [3]): Not Active; Activity (Rattus norvegicus [5]): inactive; Activity (Mus musculus [14]): inactive; Activity (Mus musculus [15]): inactive; Activity (Mus musculus [21]): inactive
CC[C@@H](CO)NCCOc1c(C)cccc1C,,,,,,,,,,,,,,,,,,,7.57,4.55,
CC[C@@H](CO)NCc1ccc2oc3cc(Cl)ccc3c(=O)c2c1,Not Active,Not Active,inactive,inactive,Not Active,Not Active,Not Active,Not Active,Not Active,inactive,inactive,Active,Active,inactive,inactive,inactive,inactive,inactive,,,Neurotoxicity (Mus musculus [26]): Neurotoxic; Neurotoxicity (Mus musculus [27]): Neurotoxic; Activity (Rattus norvegicus [28]): inactive; Activity (Mus musculus [14]): Active; Activity (Mus musculus [15]): inactive; Activity (Mus musculus [21]): inactive
C[C@@H](CO)NCc1ccc2oc3cc(Cl)ccc3c(=O)c2c1,Not Active,Not Active,inactive,inactive,Not Active,Not Active,Not Active,Not Active,Not Active,inactive,inactive,Active,Active,inactive,inactive,inactive,inactive,inactive,73,<6.851,Neurotoxicity (Mus musculus [29]): Not Active; Neurotoxicity (Mus musculus [3]): Not Active; Neurotoxicity (Mus musculus [27]): Not Active; Activity (Rattus norvegicus [5]): inactive; TD50 [30]: < 500 mg/kg; ED50 (Mus musculus [31]): > 350 mg/kg; EC50 [32]: 30 µM; EC50 [33]: 7.6 µM
COC(=O)C1=C(C)NC(C)=C(C(=O)OC)C1c1ccccc1[N+](=O)[O-] [NIFEDIPINE],,,,,,,,,,,,,,,,,,,,,EC50 [33]: 0.001 µM
O=C1NC(=O)C(c2ccccc2)(c2ccccc2)N1 [PHENYTOIN],,,,,,,,,,,,,,,,,,,6.48,6.6,ED50 (Mus musculus [31]): > 50 mg/kg; PI (Mus musculus [34]): <0.9
